# Where “and” joins values, the source holds several entries; their conditions need not be identical. Identical values can stand only once.
# Columns and labels:
# social defeat model = test: Social interaction behavior after repeated social defeat; format: in vivo; conditions: mice, 1 mg/kg i.p. once daily 28 days after 10 days defeat; 150 s test
# Method: Mice were tested for social isolation behavior after repeated exposure (for 10 days) to an aggressive resident mouse in the social defeat paradigm as described by [Berton et al. (2006)]. […] On the day after the last drug or vehicle treatment, the mice were placed in an open field in the presence of a resident mouse (within a smaller cage) and the animal’s behavior recorded by videotape for 150 s. Videotracking software (Noldus, Netherlands) was used to calculate the total time each mouse spent in specified open-field quadrants, defined schematically in Fig. 8. The total time (s) spent by mice representing each drug treatment group in the interaction zone (Fig. 8) in proximity to the resident mouse or, in the corner zones, at a distance from the resident mouse (Fig. 8) was expressed as a mean (±SEM).
# 5-HT2A receptor [1] = biological target: T1, 5-HT2A receptor (Homo sapiens, UniProt P28223); test: Serotonin-mediated phosphatidylinositol (PI) turnover in HEK293 cells; format: cell-based; conditions: right-shifting the serotonin dose–response curve
# 5-HT2B receptors = 5-HT2B receptors (Homo sapiens, UniProt P41595); test: Binding to 5-HT2B receptors
# [2] = test system: muscarinic cholinergic receptors; test: Binding to muscarinic cholinergic receptors
# DOI-induced headtwitch = test: Inhibition of DOI-induced headtwitch (in vivo 5-HT2A antagonism); conditions: mice, p.o., 30 min prior to DOI […] i.p.
# Method: Inhibition of DOI-induced headtwitch was measured as a functional assay for the in vivo potency of the compound as an antagonist at 5-HT2A receptors. […] Headtwitches were then counted for 5 min, starting 10 min after DOI injection. An ID50 for inhibition of DOI-induced headtwitch was calculated using a four-parameter logistical fit (Excel Fit software, IDBS).
# Dopamine, D4 = biological target: T2, Dopamine, D4 (Homo sapiens, UniProt P21917); test: NovaScreen broad selectivity panel at 100 nM, Dopamine D4; conditions: average of replicate tubes, read-out: % Inhibition of binding at 100 nM concentration, Dopamine D4
# T2 sequence (P21917 1-419): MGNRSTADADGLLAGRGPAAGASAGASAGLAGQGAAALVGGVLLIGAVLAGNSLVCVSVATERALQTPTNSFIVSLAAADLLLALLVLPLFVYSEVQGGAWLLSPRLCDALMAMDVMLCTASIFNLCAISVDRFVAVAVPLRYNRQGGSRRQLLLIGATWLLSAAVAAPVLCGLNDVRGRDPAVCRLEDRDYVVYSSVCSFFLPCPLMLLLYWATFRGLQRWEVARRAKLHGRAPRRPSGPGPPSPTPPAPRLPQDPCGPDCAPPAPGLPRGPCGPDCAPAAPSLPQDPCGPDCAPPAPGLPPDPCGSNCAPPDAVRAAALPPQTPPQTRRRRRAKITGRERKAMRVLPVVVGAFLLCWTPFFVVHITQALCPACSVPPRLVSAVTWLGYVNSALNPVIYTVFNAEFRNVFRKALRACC
# Method: (§1) Binding activity at a variety of receptor targets, including recombinant human serotonin receptors and rat dopamine D2 and human recombinant dopamine D4 receptors, was measured in vitro using standard radioligand displacement methods (NovaScreen/Caliper/Perkin-Elmer, Hanover, MD), to determine affinity. […] D2 receptor binding was measured at rat recombinant receptors expressed in Chinese hamster ovary (CHO) cells and using ^3H-methylspiperone as a radioligand and in rat striatum using ^3H-sulpiride as a radioligand. […] D4 receptor binding was measured at human recombinant receptor s expressed in CHO cells and using ^3 H-methylspiperone as a radioligand. D1 receptor binding at human recombinant receptor was measured in CHO cells using ^3H-SCH23390 as a radioligand. 5-HT2C receptor binding was measured in pig choroid plexus using ^3 H-methylsergide as a radioligand. Binding to alpha adrenergic receptors in the rat frontal cortex (alpha1A) or rat liver (alpha1B) was measured using ^3H-prazosin as a radioligand. Histamine H1 receptor binding was measured in bovine cere- bellum using ^3H-pyrilamine as a radioligand. […] The affinity constant (Ki) for each receptor subtype or inhibitory concentration 50 (IC50) for inhibition in functional assays was calculated.
# forelimb catalepsy = conditions: mouse, in vivo
# Method: Forelimb catalepsy was measured using the bar grip test. Mice were placed in a Lucite mouse cage outfitted with a 3-mm diameter wooden rod suspended 4 cm from the floor of the cage. During testing, the mouse was allowed to grip the bar firmly with hind legs placed firmly on the floor of the cage. The mouse was required to maintain this posture for at least 10 s for a valid test session. Catalepsy was then quantitated by recording the latency (in seconds) to step both front paws down to the floor of the cage up to a maximum time of 120 s. If the mouse stepped off the bar immediately (less than 10 s), another attempt was made up to a maximum of ten attempts. The longest duration of immobility was recorded if none of the ten attempts were beyond 10 s. Catalepsy was measured for each mouse at 2, 3, 4, and 6 h after drug administration. Mean forelimb catalepsy time (in seconds) was calculated across each group and time point. Data were analyzed using ANOVA with Newman–Keuls post hoc test.
# Histamine H1 receptor = biological target: T3, Histamine H1 receptor (Bos taurus, UniProt P30546); test: Histamine H1 receptor binding in bovine cerebellum (3H-pyrilamine)
# T3 construct: tissue NovaScreen/Caliper/Perkin-Elmer; host or cells: bovine cerebellum
# Method: as §1
# 5-HT2C receptor = biological target: T4, 5-HT2C receptor (Sus scrofa, UniProt K7GSR7); test: 5-HT2C receptor binding in pig choroid plexus (3H-methylsergide)
# T4 construct: tissue NovaScreen/Caliper/Perkin-Elmer; host or cells: pig choroid plexus
# T4 sequence (K7GSR7 1-457): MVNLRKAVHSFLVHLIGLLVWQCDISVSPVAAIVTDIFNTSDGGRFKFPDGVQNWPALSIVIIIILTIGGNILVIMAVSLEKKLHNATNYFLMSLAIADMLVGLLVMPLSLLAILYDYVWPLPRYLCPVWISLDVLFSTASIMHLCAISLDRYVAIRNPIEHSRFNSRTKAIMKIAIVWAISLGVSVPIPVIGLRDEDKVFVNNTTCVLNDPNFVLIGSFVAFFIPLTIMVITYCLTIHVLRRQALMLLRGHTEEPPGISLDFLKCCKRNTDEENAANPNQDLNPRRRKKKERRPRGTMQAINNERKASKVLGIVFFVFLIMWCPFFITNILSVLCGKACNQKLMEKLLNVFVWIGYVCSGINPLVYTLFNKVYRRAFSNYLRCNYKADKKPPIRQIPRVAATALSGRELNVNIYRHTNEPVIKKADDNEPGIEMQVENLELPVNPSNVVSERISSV
# Method: as §1
# 5-HT2A receptor [3] = biological target: T1, 5-HT2A receptor; conditions: read-out: IC50, antagonism of serotonin-induced increase in calcium fluorescence; serotonin 30 nM
# [4] = test system: D-AMPH-induced hyperactivity; test: Inhibition of D-amphetamine-induced hyperactivity; format: in vivo; conditions: rats, p.o.; D-AMPH 1 mg/kg i.p.; distance traveled over 2 h
# Method: Male Sprague–Dawley rats (200–250 g, N=4/treatment group) were habituated to Lucite locomotor activity chambers comprising an AccuScan activity monitoring system (AccuScan Instruments, Inc., Columbus, OH) were maintained in a quiet observation room kept under low light conditions. […] The rats were briefly removed from the activity chambers 60 min later to receive an injection of D-amphetamine hydrochloride (D-AMPH; 1 mg/kg in 1 ml/kg, i.p.). The animals were returned to the activity chambers, and locomotor activity was then recorded for 2 h using system software. Activity was quantitated as distance traveled (cm) over 2 h for each group. Inhibitory activity was calculated as the percent of total activity observed at each dose level of each drug versus animals receiving D-AMPH alone. An ID50 for inhibition of D-AMPH-induced hyperactivity was calculated for each compound.
# [5] = radioligand displacement, unit inferred
# T1 sequence (P28223 whole entry): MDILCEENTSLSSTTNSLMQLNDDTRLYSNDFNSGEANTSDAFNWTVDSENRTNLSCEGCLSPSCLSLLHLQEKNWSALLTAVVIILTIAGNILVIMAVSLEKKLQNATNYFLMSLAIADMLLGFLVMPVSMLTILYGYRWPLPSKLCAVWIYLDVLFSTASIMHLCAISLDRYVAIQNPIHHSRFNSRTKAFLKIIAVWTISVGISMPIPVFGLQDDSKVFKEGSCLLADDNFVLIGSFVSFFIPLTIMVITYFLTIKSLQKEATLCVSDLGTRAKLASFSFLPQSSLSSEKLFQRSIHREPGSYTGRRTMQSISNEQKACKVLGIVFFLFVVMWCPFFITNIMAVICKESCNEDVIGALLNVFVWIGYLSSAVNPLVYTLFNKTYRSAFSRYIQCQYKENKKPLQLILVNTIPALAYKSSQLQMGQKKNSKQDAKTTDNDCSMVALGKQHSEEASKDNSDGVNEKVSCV
# T3 sequence (P30546 whole entry): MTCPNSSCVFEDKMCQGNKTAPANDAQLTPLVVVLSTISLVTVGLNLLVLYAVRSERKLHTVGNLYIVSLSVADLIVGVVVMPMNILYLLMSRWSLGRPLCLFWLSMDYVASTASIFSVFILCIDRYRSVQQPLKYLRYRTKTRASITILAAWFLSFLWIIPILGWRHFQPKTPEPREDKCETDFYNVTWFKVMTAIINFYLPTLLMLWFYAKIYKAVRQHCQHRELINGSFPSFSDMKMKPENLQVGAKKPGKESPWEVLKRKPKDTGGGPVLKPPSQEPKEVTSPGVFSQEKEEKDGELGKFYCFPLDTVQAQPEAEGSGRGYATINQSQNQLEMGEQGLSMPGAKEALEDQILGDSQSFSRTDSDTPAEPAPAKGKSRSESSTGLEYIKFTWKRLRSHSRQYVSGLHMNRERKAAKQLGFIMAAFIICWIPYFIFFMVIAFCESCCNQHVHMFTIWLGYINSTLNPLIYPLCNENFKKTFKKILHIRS
# 5-HT2B receptors, sequence (P41595 whole entry): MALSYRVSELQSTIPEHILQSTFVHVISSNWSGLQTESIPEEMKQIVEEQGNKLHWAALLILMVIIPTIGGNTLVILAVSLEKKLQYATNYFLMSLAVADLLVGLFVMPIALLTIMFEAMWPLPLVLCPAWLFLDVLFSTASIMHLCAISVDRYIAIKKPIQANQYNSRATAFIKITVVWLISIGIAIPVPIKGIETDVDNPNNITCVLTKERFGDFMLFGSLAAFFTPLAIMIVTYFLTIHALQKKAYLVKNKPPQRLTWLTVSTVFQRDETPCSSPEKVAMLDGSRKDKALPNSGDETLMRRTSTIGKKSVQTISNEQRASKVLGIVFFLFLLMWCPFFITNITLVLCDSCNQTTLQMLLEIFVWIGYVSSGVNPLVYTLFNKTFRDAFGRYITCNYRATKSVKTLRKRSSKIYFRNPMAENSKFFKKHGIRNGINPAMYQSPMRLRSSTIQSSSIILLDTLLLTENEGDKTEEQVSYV
compound,measurement,setting,value
"CN1CCN2c3c(cccc31)[C@@H]1CN(CCCC(=O)c3ccc(F)cc3)CC[C@@H]12 [ITI-007, 1-(4-fluoro-phenyl)-4-((6bR,10aS)-3-methyl-2,3,6b,9,10,10a-hexahydro-1H,7H-pyrido[3′,4′:4,5]pyrrolo[1,2,3-de]quinoxalin-8-yl)-butan-1-one]",Time spent in interaction zone (social behavior) after chronic social defeat,social defeat model,no such reduction in social behavior
same,Effect on serotonin-mediated increases in phosphatidylinositol (PI) turnover,5-HT2A receptor [1],antagonize
same,Binding to 5-HT2B receptors,5-HT2B receptors,did not significantly bind
same,"Binding to muscarinic cholinergic receptors (e.g., M3 subclasses)",[2],no significant binding
same,"ID50, inhibition of DOI-induced headtwitch",DOI-induced headtwitch,0.09 mg/kg
same,inhibition at 0.1 µM,"Dopamine, D4",64.3%
same,Cataleptogenic activity,forelimb catalepsy,no demonstrable cataleptogenic activity
same,"Forelimb catalepsy, bar grip test","forelimb catalepsy; po, 30 mg/kg",statistically significant increase in forelimb catalepsy
same,Binding to histamine H1 receptors,Histamine H1 receptor,no significant binding
same,Ki,Histamine H1 receptor; [5],> 1000 nM
same,Binding to 5-HT2C receptors,5-HT2C receptor,did not significantly bind
same,Ki,5-HT2C receptor; [5],173 nM
same,IC50,5-HT2A receptor [3],7 nM
same,"ID50, inhibition of D-AMPH-induced hyperactivity",[4],0.95 mg/kg and ~ 1.0 mg/kg

# Source: PMC4302236, “Functional profile of a novel modulator of serotonin, dopamine, and glutamate neurotransmission” (Psychopharmacology, 2014)
